Reference: US20160227774A1 (priority 2015, published 2016)
Values joined by “and” are separate entries in the source; they are usually repeats but may differ in a detail not shown here. Equal values may be shown once. Where a name gives a salt, the structure may show the parent alone. Read-outs that look alike come from different tables or passages of the source.

Assays:
[1] = test system: Ca. Liberibacter asiaticus; format: in vivo, Candidatus Liberibacter asiaticus; settings: for CT, 1 (mean CT values 1-week after injection) / CT, 0 (mean CT values prior to injection): 4 trees; for CT, 0 (mean CT values prior to injection): baseline; for Effect on Las bacterial populations (in words): second trial, statistical significance only in the first trial
Midsweet orange [2] = format: in vivo, Citrus sinensis; settings: BABA 150 μM, INA 0.5 mM, AA 600 μM, CuSO4 0.3 mM, alone or combined
[3] = test system: Candidatus Liberibacter asiaticus (Las); format: in vivo; settings: BABA 1.0 mM, 2-DDG 100 μM; for Reduction of Las titer compared to control at the end of the experiments: Example 5, Murcott mandarin (10-year), foliar spraying
[4] = test system: β-1,3-glucanase gene (PR-2), calS1, pp2; format: in vivo, Citrus sinensis; settings: for PR-2, calS1 or pp2 gene expression (in words): AA 60 μM, INA 0.1 mM
[5] = test system: Candidatus Liberibacter asiaticus (Las); format: in vivo; settings: Example 6; Valencia sweet orange (4-year); BABA 0.2-1.0 mM, 2-DDG 100 μM; foliar spraying
HLB disease = test: Trial I (Example 3): HLB disease severity (sAUDPS), Midsweet orange, foliar spray; format: in vivo, Citrus sinensis; settings: end of the experiment
[6] = test system: Candidatus Liberibacter asiaticus (Las); format: in vivo
[7] = test system: Candidatus Liberibacter asiaticus (Las); format: in vivo; remark: listed apart in the source
Midsweet orange [8] = test system: Midsweet orange; design: species or system Citrus sinensis; settings: in vivo
[9] = test system: β-1,3-glucanase gene (PR-2), calS1, pp2; format: in vivo, Citrus sinensis; settings: 2-DDG 100 μM
[10] = Trial 1 (July, 2014), trunk injection SA 32, OA 40, PPD 40, ICD 67, OTC 50 mg ai/tree
[11] = Trial 2 (September, 2014), trunk injection SA 8, OTC 7, OA, PPD, ICD, AA, BABA 5 mg ai/tree
[12] = November 2013, BABA 0.2 mM, INA 0.1 mM, AA 60 μM, 2-DDG 10 μM
[13] = November 2013, BABA 1.0 mM, INA 0.5 mM, BTH 1.0 mM, AA 600 μM, 2-DDG 100 μM, alone or combined
[14] = October 2014 (end of the experiment), BABA 0.2 mM, INA 0.1 mM, AA 60 μM, 2-DDG 10 μM
[15] = October 2014 (end of the experiment), BABA 1.0 mM, INA 0.5 mM, BTH 1.0 mM, AA 600 μM, 2-DDG 100 μM, alone or combined
[16] = November 2013, BABA 15 μM, INA 0.1 mM, AA 60 μM

O=P([O-])([O-])O.[K+].[K+] [PPD, potassium phosphate dibasic, reference compound]
ΔCT = CT, 1 − CT, 0 [1, 10]: 2.64
CT, 1 (mean CT values 1-week after injection) [1, 10]: 26.56
CT, 0 (mean CT values prior to injection) [1, 10]: 23.92
ΔCT = CT, 1 − CT, 0 [1, 11]: 0.34
CT, 1 (mean CT values 1-week after injection) [1, 11]: 23.63
CT, 0 (mean CT values prior to injection) [1, 11]: 23.29
Effect on Las bacterial populations (in words) ([1]; trunk injection): moderately reduced

O=S(=O)([O-])[O-].[Cu+2] [CuSO4, Copper Sulphate]
Yield (Midsweet orange [2]; 2013): 28.4 c kg/tree
Yield (Midsweet orange [2]; 2014): 24.1 c kg/tree

O=C(O)C(=O)O [OA, oxalic acid]
ΔCT = CT, 1 − CT, 0 [1, 10]: 2.83
CT, 1 (mean CT values 1-week after injection) [1, 10]: 26.59
CT, 0 (mean CT values prior to injection) [1, 10]: 23.76
ΔCT = CT, 1 − CT, 0 [1, 11]: 0.70
CT, 1 (mean CT values 1-week after injection) [1, 11]: 26.17
CT, 0 (mean CT values prior to injection) [1, 11]: 25.47
ΔCT compared with that of OTC (in words) ([1]; trunk injection): not significantly different
Effect on Las bacterial titer versus control one week after injection (in words) ([1]; trunk injection, both trials): significantly reduced

CSC(=O)c1cccc2nnsc12 [ASM, acibenzolar-S-methyl]
Effect on Las bacterial populations (in words) ([1]; trunk injection): moderately reduced

O=[N+]([O-])NC1=NCCN1Cc1ccc(Cl)nc1 [ICD, imidacloprid]
ΔCT = CT, 1 − CT, 0 [1, 10]: 0.08
CT, 1 (mean CT values 1-week after injection) [1, 10]: 24.50
CT, 0 (mean CT values prior to injection) [1, 10]: 24.42
ΔCT = CT, 1 − CT, 0 [1, 11]: 0.13
CT, 1 (mean CT values 1-week after injection) [1, 11]: 24.02
CT, 0 (mean CT values prior to injection) [1, 11]: 23.89
Effect on Las bacterial titer versus control one week after injection (in words) ([1]; in vivo): did not statistically significantly reduce

O=C(O)c1ccccc1O [SA, salicylic acid]
ΔCT = CT, 1 − CT, 0 [1, 10]: 1.73
CT, 1 (mean CT values 1-week after injection) [1, 10]: 25.34
CT, 0 (mean CT values prior to injection) [1, 10]: 23.61
ΔCT = CT, 1 − CT, 0 [1, 11]: 0.95
CT, 1 (mean CT values 1-week after injection) [1, 11]: 24.88
CT, 0 (mean CT values prior to injection) [1, 11]: 23.93
ΔCT compared with that of OTC (in words) ([1]; trunk injection): not significantly different
Effect on Las bacterial titer versus control one week after injection (in words) ([1]; trunk injection, both trials): significantly reduced

CC(N)CC(=O)O (racemic) [BABA, β-aminobutyric acid]
Reduction of Las titer compared to control at the end of the experiments [3]: 0.66 log unit per gram plant tissue
PR-2 gene expression (in words) ([4]; BABA 150 μM, 6 days after treatment): no significant change
PR-2 gene expression compared to the negative control ([4]; in vivo): 3.0 fold
pp2 (phloem protein-2) or calS1 expression (in words) ([4]; in vivo): no effect
Reduction of Las titer compared to control at the end of the experiments [5]: 0.68 log unit per gram plant tissue
ΔCT = CT, 1 − CT, 0 [1, 11]: 0.50
CT, 1 (mean CT values 1-week after injection) [1, 11]: 22.60
CT, 0 (mean CT values prior to injection) [1, 11]: 22.10
Effect on Las bacterial titer versus control one week after injection (in words) ([1]; trunk injection, both trials): greatly decreased
HLB disease severity (sAUDPS) reduced by, compared with the negative control (HLB disease; AA 60 μM, BABA 15 μM): 28.6%
HLB disease severity (sAUDPS) reduced by, compared with the negative control (HLB disease; BABA 150 μM): 21.4%
Reduction of Las titer compared to control at the end of the experiments ([6]; Example 4, Midsweet orange (8-year), BABA 0.2 mM, foliar spraying): 0.66 log unit per gram plant tissue
Las population [6, 12]: (3.45 ± 0.32) × 10^6 Cells/g of plant tissue
Las population [6, 13]: (4.23 ± 1.22) × 10^6 Cells/g of plant tissue
Las population [6, 14]: (5.84 ± 0.25) × 10^6 Cells/g of plant tissue
Las population [6, 15]: (0.95 ± 0.26) × 10^7 Cells/g of plant tissue
Reduction of Las titer compared to control at the end of the experiments ([7]; Example 3, Midsweet orange (7-year), BABA 15 μM-150 μM, foliar spraying): 0.63 log unit per gram plant tissue
Las population [7, 16]: (3.67 ± 0.59) × 10^6 Cells/g of plant tissue
Las population ([7]; November 2013, BABA 150 μM): (6.48 ± 0.61) × 10^6 Cells/g of plant tissue

CN(C)[C@@H]1C(O)=C(C(N)=O)C(=O)[C@@]2(O)C(O)=C3C(=O)c4c(O)cccc4[C@@](C)(O)[C@H]3[C@H](O)[C@@H]12 [OTC, oxytetracycline hydrochloride, reference compound]
ΔCT = CT, 1 − CT, 0 [1, 10]: 1.33
CT, 1 (mean CT values 1-week after injection) [1, 10]: 29.28
CT, 0 (mean CT values prior to injection) [1, 10]: 27.95
ΔCT = CT, 1 − CT, 0 [1, 11]: 0.90
CT, 1 (mean CT values 1-week after injection) [1, 11]: 25.54
CT, 0 (mean CT values prior to injection) [1, 11]: 24.64

O=CC[C@@H](O)[C@H](O)[C@H](O)CO [2-DDG, 2-deoxy-D-glucose]
Reduction of Las titer compared to control at the end of the experiments [3]: 0.66 log unit per gram plant tissue
Fruit acidity (Midsweet orange [8]): 0.73 a percent citric acid and 0.67 a percent citric acid and 0.69 a percent citric acid and 0.66 a percent citric acid
Fruit brix (Midsweet orange [8]): 9.63 a and 10.41 a and 9.20 a and 10.10 a
Fruit brix acidity ratio (Midsweet orange [8]): 15.19 a and 13.19 a and 15.17 a and 13.33 a
Reduction of Las titer compared to control at the end of the experiments [5]: 0.70 log unit per gram plant tissue
Las population [6, 12]: (4.45 ± 0.94) × 10^6 Cells/g of plant tissue
Las population [6, 13]: (2.64 ± 0.76) × 10^6 Cells/g of plant tissue
Las population [6, 14]: (0.91 ± 0.32) × 10^7 Cells/g of plant tissue
Las population [6, 15]: (4.17 ± 1.02) × 10^6 Cells/g of plant tissue
PR-2, pp2 or calS1 induction (in words) [9]: not able to induce

O=C(O)c1cc(Cl)nc(Cl)c1 [INA, 2,6-dichloro-isonicotinic acid, reference compound]
PR-2, calS1 or pp2 gene expression (in words) [4]: not able to induce
Percent juice content (Midsweet orange [8]): 50.5 a and 51.1 a
Effect on Las bacterial titer versus control one week after injection (in words) ([1]; trunk injection, both trials): did not statistically significantly reduce
Las population [6, 12]: (2.07 ± 0.33) × 10^6 Cells/g of plant tissue
Las population [6, 14]: (3.91 ± 0.85) × 10^6 Cells/g of plant tissue
Las population [7, 16]: (4.06 ± 0.25) × 10^6 Cells/g of plant tissue
Las population ([7]; October 2014 (end of the experiment), BABA 15 μM, INA 0.1 mM, AA 60 μM): (5.94 ± 0.36) × 10^6 Cells/g of plant tissue

O=C1O[C@H]([C@@H](O)CO)C([O-])=C1O.[Na+] [AA, L-Ascorbic acid sodium salt, reference compound]
Las population ([3]; Feb.2015, AA 600 μM, INA 0.5 mM, BTH 1.0 mM): (3.12 ± 0.22) × 10^7 a Cells/g of leaf tissue
PR-2, calS1 or pp2 gene expression (in words) [4]: not able to induce
Fruit brix acidity ratio (Midsweet orange [8]; sodium salt): 14.87 a and 12.55 a
Percent juice content (Midsweet orange [8]; sodium salt): 53.3 a and 51.1 a
ΔCT = CT, 1 − CT, 0 [1, 11]: −0.50
CT, 1 (mean CT values 1-week after injection) [1, 11]: 21.65
CT, 0 (mean CT values prior to injection) [1, 11]: 22.15
HLB disease severity (sAUDPS) reduced by, compared with the negative control (HLB disease; AA 60 μM, BABA 15 μM): 21.3%
Las population [6, 12]: (2.99 ± 0.95) × 10^6 Cells/g of plant tissue
Las population [6, 14]: (3.98 ± 0.81) × 10^6 Cells/g of plant tissue
Las population [7, 16]: (3.56 ± 0.57) × 10^6 Cells/g of plant tissue
